Reference: patent US20250177269A1, “COMPOSITION FOR PROMOTING HAIR SPROUTING OR HAIR GROWTH CONTAINING A THYMOL ESTER-BASED COMPOUND” (AMOREPACIFIC CORPORATION, priority 2023, published 2025)

Test system: dermal papilla (DP) cells and outer root sheath (ORS) cells
Assay: "Two-Cell Assemblage" Assay, hair growth-promoting efficacy
Type: cell-based
Settings: 10 ppm, 20 ppm; cultured for 5 days; vs. control
Experimental: The hair growth-promoting efficacy of 3,4,5-trimethoxycinnamate thymol ester (Melasolv) according to the concentration (10 ppm, 20 ppm) was evaluated using “Two-Cell Assemblage” Assay (“Two-Cell Assemblage” Assay: A Simple in vitro Method for Screening Hair Growth-Promoting Compounds) (Front Cell Dev Biol. 2020 Nov. 24; 8:581528).
The “Two-Cell Assemblage” Assay is an evaluation method that mimics the hair growth of actual hair follicles by co-culturing dermal papilla (DP) cells and outer root sheath (ORS) cells that constitute the hair follicle. That is, the length growth of the “Two-Cell Assemblage” structure has a mechanism similar to that of the actual hair follicle growth, and is being used as a new method of evaluating hair growth-promoting efficacy.
5,000 hair follicle dermal papilla cells were seeded on an ultra-low attachment 96-well plate to form 3D spheroids. After 24 hours, 5,000 outer root sheath cells (Kyungpook National University Industry-Academic Cooperation Foundation) were added together with the test substance to create a “Two-Cell assemblage” structure and cultured for 5 days under 37° C., 5% CO2 conditions. After culturing for 5 days, the length growth was measured using a microscope (OLYMPUS, SZX16) and shown in the Figure (* p<0.05, ** p<0.01, *** p<0.001 vs. control).

For COc1cc(/C=C/C(=O)Oc2cc(C)ccc2C(C)C)cc(OC)c1OC [Melasolv, (5-methyl-2-propan-2-ylphenyl) (E)-3-(3,4,5-trimethoxyphenyl) prop-2-enoate], which “length growth of the "Two-Cell Assemblage" structure (hair growth efficacy)” value is on record?
The value was “significant level of length growth-promoting efficacy”.
